Laboratory results published in publication PMC10224201, “Characterization of Non-Specific Uptake and Retention Mechanisms of [^177Lu]Lu-PSMA-617 in the Salivary Glands” (Pharmaceuticals, 2023).

Molecular target: T1, PSMA (PC3-PIP cells) (Homo sapiens, UniProt Q04609)
T1 construct: gene FOLH1; full length, on intact PSMA-positive PC3-PIP prostate cancer cells (PC3-Flu as PSMA-negative control)
Experiment: competition with […]Lu-PSMA-617 on cells, gamma counting
Assay type: cell-based
Conditions: read-out: % of control binding at 9000 μM

T1 sequence (Q04609 whole entry): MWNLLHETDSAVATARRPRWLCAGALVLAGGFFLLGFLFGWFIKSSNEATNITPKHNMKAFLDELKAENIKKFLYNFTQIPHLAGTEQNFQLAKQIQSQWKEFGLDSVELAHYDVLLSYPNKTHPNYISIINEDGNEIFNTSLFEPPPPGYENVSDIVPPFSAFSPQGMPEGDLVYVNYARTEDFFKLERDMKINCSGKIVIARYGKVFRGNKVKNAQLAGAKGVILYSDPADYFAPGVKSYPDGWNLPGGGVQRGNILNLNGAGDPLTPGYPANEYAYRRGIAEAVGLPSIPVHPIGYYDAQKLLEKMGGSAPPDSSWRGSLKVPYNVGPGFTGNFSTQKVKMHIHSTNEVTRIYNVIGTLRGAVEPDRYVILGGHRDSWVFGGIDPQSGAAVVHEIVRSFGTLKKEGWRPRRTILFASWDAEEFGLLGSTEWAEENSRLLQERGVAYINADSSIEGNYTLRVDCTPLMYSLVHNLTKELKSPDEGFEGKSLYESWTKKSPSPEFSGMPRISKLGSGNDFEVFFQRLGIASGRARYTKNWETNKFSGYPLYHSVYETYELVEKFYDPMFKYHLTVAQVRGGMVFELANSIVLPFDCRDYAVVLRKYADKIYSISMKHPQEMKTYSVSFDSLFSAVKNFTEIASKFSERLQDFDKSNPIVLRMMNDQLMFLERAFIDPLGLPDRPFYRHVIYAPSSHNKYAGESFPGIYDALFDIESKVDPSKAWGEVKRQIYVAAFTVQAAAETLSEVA

- remaining activity at 9000 µM: 24.9 ± 3.64%
Compound: N[C@@H](CCC(=O)O)C(=O)O [monosodium glutamate]
